Reference: patent US7815950B2, “Ketomethionine ketals and derivatives thereof” (Evonik Degussa GmbH, priority 2006, dated 2010)
Read-outs that look alike come from different tables or passages of the source. Blank lines part the entries; values can stand above or below the molecule they belong to.

Tests used:
[1] = feeding experiments with rodents and poultry; compared with MHA; cited from earlier work
[2] = ruminants; published in WO 00/28835; cited from earlier work
[3] = HMBi applied to a porous support; compared with WO 00/28835; EP 1358805; cited from earlier work
[4] = European Commission report, 25 Apr. 2003; cited from earlier work
[5] = in vivo; cited from earlier work

melting point: 74 °C
Compound: CSCCC1(C(=O)O)OCCO1 [Example 2, 2-(2-(methylthio)ethyl)-1,3-dioxolane-2-carboxylic acid]

Compound: CSCCC(=O)C(=O)[O-].[Na+] [sodium salt of α-ketomethionine]
biological value [1]: significantly above that of MHA

Compound: CSCCC(O)C(=O)OC(C)C (stereo not drawn) [HMBi]
biological value [2]: at least 50%
biological value [3]: comparable biological value
absorbed via the rumen wall [4]: approximately 50%

Compound: CSCCC(N)C(=O)OC(C)(C)C (racemic) [D,L-tert-butylmethionine, reference compound]
biological value [2]: 80%

melting point: 39.5 °C
Compound: CSCCC12OCC(CO1)OC2=O [Example 5, 4-(2-(methylthio)ethyl)-2,5,8-trioxabicyclo[2.2.2]octan-3-one]

Compound: CSCCC(O)C(=O)O (stereo not drawn) [MHA, hydroxymethylthiobutyric acid]
supplemented MHA that, after absorption in the small intestine, can pass into metabolism [5]: 20-40%

melting point: 109 °C
Compound: CSCCC1(O)OCC(C)(C)COC1=O (racemic) [Example 4, rac-4,4-dimethyl-7-hydroxy-7-(2-(methylthio)ethyl)-6-oxacaprolactone]
